How the values were obtained:
[1] = test system: DLD-1 (human colorectal cancer cells); assay: In vivo tumor growth inhibition, DLD-1 xenograft; parameters: species or system BALB/c nude mice; conditions: 5-fluorouracil 75 mg/kg once a week intravenous
Experimental: DLD-1 (human colorectal cancer cells): Female 6-8 weeks old BALB/c nude mice were inoculated subcutaneously on the right flank with DLD-1 tumor cells (5×10^6) in 0.1 ml of RPMI1640 medium without serum for tumor development. The treatments were started when the mean tumor size reached approximately 195 mm^3 at Day 7 post inoculation and continued until end of study by twice daily oral gavage dosing of HC-7366 at listed doses (vehicle, 0.3 mg/kg HC-7366, 1 mg/kg HC-7366, 3 mg/kg HC-7366, 10 mg/kg HC-7366, or 30 mg/kg HC-7366, FIG. 10). For the time course study, tumors were harvested at Days 4, 7 and 14. Tumors were then used for IHC and RNAseq experiments (see Example 21).
(§1) [formula] • 2.2.2 Tumor Measurements: The measurement of tumor size was conducted three times weekly with a caliper and recorded. The tumor volume (mm^3) was estimated using the formula: TV=a×b^2/2, where “a” and “b” is long and short diameters of a tumor, respectively. Tumor volume was calculated using the formula [tumor volume (mm^3)=π/6×length×width^2).
(§2) Regression was calculated using the formula=100×ΔT/T initial, if ΔT<0. Animals with 0 mm^3 tumor volume (no measurable tumor) for three consecutive measurements were considered as complete responders and animals with 50% tumor regressions were partial responders.
(§3) The effect of DC101 in combination with HC-7366 in DLD-1 tumor-bearing mice was evaluated using protocols analogous to those described in Example 6. Mice were treated with 3 or 30 mg/kg HC-7366, twice daily by oral gavage. DC101 was administered at 20 mg/kg twice weekly and with twice daily dosing via intraperitoneal injection.
as §3, with “5-fluorouracil” for “DC101”, “75” for “20”, “once a week,” for “twice weekly and with”, “daily” for “daily dosing”, “intravenous” for “intraperitoneal”

[2] = test system: 786-O (human renal cell carcinoma cancer cells); assay: In vivo tumor growth inhibition, 786-O xenograft; parameters: species or system BALB/c nude mice; conditions: PT-2977 single agent, 0.1 mg/kg twice a day oral
Experimental: 786-O (human renal cell carcinoma cancer cells): Female 6-8 weeks old BALB/c nude mice were inoculated subcutaneously on the right flank with 786-O tumor cells (5×10^6) in 0.1 ml of RPMI1640 medium without serum for tumor development. […] For the DC101 combination study, DC101 (murine monoclonal anti-VEGFR2 antibody) was dosed at 15 mg/kg twice a week by intraperitoneal injection.
as §1, §2
Female 6-8 weeks old BALB/c nude mice were inoculated subcutaneously on the right flank with 786-O tumor cells (5×10^6) in 0.1 ml of RPMI1640 medium without serum for tumor development (see Example 6). […]

[3] = test system: MFE280 (human endometrial cancer cells); assay: In vivo tumor growth inhibition, MFE280 xenograft; parameters: species or system Athymic Nude-Foxn1nu mice; conditions: PT2977 1 mg/kg twice daily oral
[4] = test system: NCI-H1975 (human non-small cell lung cancer cells); assay: In vivo tumor growth inhibition, NCI-H1975 xenograft; parameters: species or system Athymic Nude-Foxn1nu mice
Experimental: NCI-H1975 (human non-small cell lung cancer cells): Female 7-8 weeks old Athymic Nude-Foxn1nu mice were inoculated subcutaneously on the right flank with NCI-H1975 tumor cells (2.5×10^6) in 0.1 ml of RPMI1640 medium without serum for tumor development. Single agent HC-7366 was dosed at 3 mg/kg, osimertinib at 2.5 mg/kg and dacomitinib at 15 mg/kg. HC-7366 was combined with either osimertinib or dacomitinib. The vehicle for the groups was 0.5% methyl cellulose. The treatments were started when the mean tumor size reached approximately 205 mm^3 at Day 22 post inoculation and continued until end of study. HC-7366 was given twice daily by oral gavage whereas osimertinib or dacomitinib were administered once a day by oral gavage (FIGS. 131 and 133).
as §1, §2

[5] = test system: GCN2 pathway (p-GCN2, ATF4) in HT1080 cells; assay: Western blot analysis of HT1080 cell lysates; assay type: cell-based, human; conditions: 100 nM Halofuginone
Experimental: The HT1080 cells were harvested and counted and diluted to the desired density. 2 mL of cell suspension was added into each well of 6-well cell culture plate. The plates were transferred into 37° C., 5% CO2 incubator overnight. The cells were treated as described above. The media was aspirated, and cells were washed with ice cold phosphate buffered saline (PBS). Ice cold 1× radioimmunoprecipitation assay (RIPA) lysis buffer supplemented with protease and phosphatase inhibitors was added to the cell pellets, on ice. After 30 min on ice the cell lysates were centrifuged at 4° C., 12,000 rpm for 15 minutes and the supernatant collected. Protein concentration was determined using BCA kit. The cell lysates were mixed with 5× sodium dodecyl sulfate (SDS) loading buffer and denatured at 95° C. for 5 minutes. […] After the electrophoresis was completed, the separated protein was transferred to a nitrocellulose membrane using transblot system for 90 min, 300 mA, then the membrane was blocked with (tris-buffered saline) TBS buffer (5% bovine serum albumin (BSA)) for 1 hr at room temperature. The membrane was exposed to the primary antibodies overnight in cold room in TBS buffer (1% BSA). The membrane was then washed with TBS-Tween for 3×10 min at R/T, incubated with secondary antibodies in TBS buffer (1% BSA) for 1 hr at RT. The membrane was washed with TBS-Tween for 3×10 min at R/T and the imaging was acquired with Li—COR imaging system.

[6] = test system: MV4-11 (human AML cancer cells); assay: In vivo tumor growth inhibition, MV4-11 xenograft; parameters: species or system BALB/c nude mice; conditions: venetoclax monotherapy, 50 mg/kg once daily
Experimental: MV4-11 (human AML cancer cells): Female 6-8 weeks old BALB/c nude mice were inoculated subcutaneously on the right flank with MV4-11 tumor cells (1×10^7) in RPMI 1640 without serum for tumor development. The treatments were started when the mean tumor size reached approximately 150 mm^3 at Day 13 after cell inoculation and continued until end of study by twice daily oral gavage dosing of HC-7366 at listed doses (vehicle, 0.3 mg/kg HC-7366, 1 mg/kg HC-7366, 3 mg/kg HC-7366, 10 mg/kg HC-7366, or 30 mg/kg HC-7366, FIG. 20). For venetoclax combination study, venetoclax was dissolved in 0.5% carboxymethylcellulose (CMC) and co-administered at 50 mg/kg dose once daily (see Example 8).
as §1, §2
MV4-11 tumors were collected at the end of the venetoclax combination study described in Example 6. Tumor growth curves are provided of MV4-11 tumors treated with single agent HC-7366 and venetoclax or combination (FIG. 43).

## O=c1[nH]cc(F)c(=O)[nH]1 [5-fluorouracil, reference compound]
[1]
  TGI %: ~68%

## CS(=O)(=O)c1ccc(Oc2cc(F)cc(C#N)c2)c2c1[C@H](O)[C@H](F)[C@@H]2F [PT-2977, belzutifan, reference compound]
[2]
  TGI %: ~70%
[3]
  tumor growth inhibition: 53%

## COc1cc2ncnc(Nc3ccc(F)c(Cl)c3)c2cc1NC(=O)/C=C/CN1CCCCC1 [dacomitinib]
[4]; dacomitinib alone 15 mg/kg once a day, end of the study, without statistical significance
  TGI %: 36%

## O=C(CC1NCCCC1O)Cn1cnc2cc(Br)c(Cl)cc2c1=O (centres unmarked) [halofuginone, reference compound]
[5]
  GCN2 and ATF4 in cells treated with halofuginone: activation of GCN2 and ATF4

## C=CC(=O)Nc1cc(Nc2nccc(-c3cn(C)c4ccccc34)n2)c(OC)cc1N(C)CCN(C)C [osimertinib]
[4]; 50% tumor regressions, doses as in study
  partial response (animals/group): 1/10
[4]; osimertinib 2.5 mg/kg once a day oral
  TGI: 95%

## CC1(C)CCC(CN2CCN(c3ccc(C(=O)NS(=O)(=O)c4ccc(NCC5CCOCC5)c([N+](=O)[O-])c4)c(Oc4cnc5[nH]ccc5c4)c3)CC2)=C(c2ccc(Cl)cc2)C1 [venetoclax, reference compound]
[6]
  TGI: 62%

Source: patent publication US20250339426A1, “GCN2 MODULATOR FOR TREATING CANCER” (HIBERCELL, INC., priority 2022, published 2025)
